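Briefly, cells in 96-well plates were exposed to five compound concentrations for 48 h, and endpoints were estimated by linear interpolation. GI50 is the concentration that inhibits growth by half. TGI marks complete inhibition of growth.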
What was measured:
Experiment in all cases: DTP human tumour cell line panel, 48 h
CAKI-1 renal = tested on: CAKI-1 renal
EKVX NSCLC = tested on: EKVX NSCLC
HOP-92 NSCLC = tested on: HOP-92 NSCLC
HT29 colon = tested on: HT29 colon
SK-MEL-28 melanoma = tested on: SK-MEL-28 melanoma
SK-OV-3 ovarian = tested on: SK-OV-3 ovarian
SNB-19 CNS = tested on: SNB-19 CNS
SNB-75 CNS = tested on: SNB-75 CNS
UO-31 renal = tested on: UO-31 renal
K-562 leukemia = tested on: K-562 leukemia

Structure (SMILES) | TGI (CAKI-1 renal) [µM] | TGI (EKVX NSCLC) [µM] | TGI (HOP-92 NSCLC) [µM] | TGI (HT29 colon) [µM] | TGI (SK-MEL-28 melanoma) [µM] | TGI (SK-OV-3 ovarian) [µM] | TGI (SNB-19 CNS) [µM] | TGI (SNB-75 CNS) [µM] | TGI (UO-31 renal) [µM] | TGI (K-562 leukemia) [µM] | GI50 (CAKI-1 renal) [µM] | GI50 (EKVX NSCLC) [µM] | GI50 (HOP-92 NSCLC) [µM] | GI50 (K-562 leukemia) [µM] | GI50 (SK-MEL-28 melanoma) [µM] | GI50 (SK-OV-3 ovarian) [µM] | GI50 (SNB-19 CNS) [µM] | GI50 (UO-31 renal) [µM] | GI50 (HT29 colon) [µM] | GI50 (SNB-75 CNS) [µM]
CNC(=O)OCc1c(COC(=O)NC)c(-c2ccc(-c3ccccc3)cc2)n(C)c1C | 5.14 | 11.1 | 11.9 | 13.9 | 28.7 | 11.8 | 16.9 | 10.6 | 3.1 | – | – | – | – | – | – | – | – | – | – | –
N#C/C(=C/c1cccc(Oc2ccccc2)c1)c1ccccc1 | > 100 | > 100 | > 100 | > 100 | > 100 | > 100 | – | > 100 | > 100 | > 100 | – | – | – | – | – | – | – | – | – | –
C=C(C)[C@@H]1CC[C@]2(COCCCN)CC[C@]3(C)[C@H](CC[C@@H]4[C@@](C)(CCCNCCCN)[C@H](C(=C)C)CC[C@]43C)[C@@H]12 | 3.13 | 3.21 | 2.84 | – | 3.14 | 4.9 | 3.56 | – | 2.77 | 3.57 | 1.75 | 1.71 | 1.36 | 1.67 | 1.72 | 2.23 | 1.84 | 1.43 | – | –
CC(=O)C1C(c2ccccc2)C2(C)OC(=O)C(C#N)C12C (stereo not drawn) | – | > 100 | – | – | > 100 | > 100 | > 100 | > 100 | > 100 | > 100 | – | – | – | – | – | – | – | – | – | –
CC(=O)c1ccc(NC(=O)/C(CC(=O)c2sc(-c3cccnc3)nc2C)=N/NC(N)=O)cc1 | 86 | – | – | > 100 | > 100 | > 100 | > 100 | – | > 100 | > 100 | – | – | – | – | – | – | – | – | – | –
Nc1ncc(-c2cnn(C3CCNCC3)c2)cc1-c1nc2cc(Cl)ccc2o1 | 3.09 | – | 2.14 | 1.25 | 2.68 | 3.22 | 2.97 | 3.06 | 1.02 | 0.444 | 1.58 | – | 0.808 | 0.218 | 1.3 | 1.76 | 1.56 | 0.484 | 0.352 | 1.65
NC(CSC(c1ccccc1)(c1ccccc1)c1ccccc1)C(=O)NCC(=O)O (stereo not drawn) | > 100 | – | > 100 | 97.6 | > 100 | 43.7 | > 100 | 27.7 | > 100 | > 100 | 37.1 | – | 5.01 | 3.19 | 8.19 | 4.33 | 8.33 | 31.3 | 22 | 2.95
C=C1c2c(C)nn(-c3ccc(C#CCOC4OC(CO)C(O)C(O)C4O)cc3)c2N(C)C23C[C@H]1C1(C)c4c(C)nn(-c5ccc(C#CCOC6OC(CO)C(O)C(O)C6O)cc5)c4N(C)C(C)(C[C@H]12)C3 (stereo partly drawn) | 11.6 | – | 2.52 | 4.21 | 3.52 | 3.11 | 3.95 | – | 10.1 | 6.75 | 2.81 | – | 0.437 | 1.89 | 1.9 | 1.72 | 1.66 | 2.83 | 1.63 | –
CCCCCCCCCCCCCP(=O)(O)O | – | > 100 | > 100 | > 100 | > 100 | > 100 | > 100 | > 100 | > 100 | – | – | – | – | – | – | – | – | – | – | –
OCC12C=CC(C1)c1ccccc12 (stereo not drawn) | > 100 | – | > 100 | > 100 | > 100 | > 100 | > 100 | – | > 100 | > 100 | – | – | – | – | – | – | – | – | – | –
C=CC[P@]1(=O)O[C@H](c2ccccc2)[C@H](C)N1C | – | > 100 | – | > 100 | > 100 | > 100 | > 100 | > 100 | > 100 | > 100 | – | – | – | – | – | – | – | – | – | –
CCC1=CCN(c2cc(C)ccn2)OC1c1ccc(OC)cc1 (stereo not drawn) | > 100 | > 100 | – | 50.2 | 64.9 | > 100 | > 100 | > 100 | > 100 | > 100 | – | – | – | – | – | – | – | – | – | –
CCN(CC)CCNC(Cc1ccccc1)c1ccc(OCc2ccccc2)cc1 (stereo not drawn) | 16.7 | – | – | 11.8 | 4.03 | 23.6 | 22.8 | 18 | 14.7 | 7.16 | 4.52 | – | – | 2.37 | 1.85 | 10.9 | 9.65 | 2.53 | 2.44 | 4.29
CC(=O)Oc1c(C)c(-c2ccccc2)c(C)c(-c2ccccc2)c1C(=S)c1ccccc1 | – | > 100 | > 100 | > 100 | > 100 | > 100 | > 100 | > 100 | > 100 | > 100 | – | – | – | – | – | – | – | – | – | –

Reference: PubChem BioAssay (NCI)
